Laboratory results reported in PubChem BioAssay AID1996.
Values after ≈ are worked out from the molar mass of the structure shown.

Conditions: buffer; pH 7.4; 200.0 µM

Row | Compound | solubility kinetic [µg/mL]
1 | CCCCCC1CCC(C(=O)NCCN2CCOCC2)CC1 (stereo not drawn) | 35.6 (≈ 115 µM)
2 | CN1CC(=O)N(CC(=O)Nc2ccc(OCc3ccccc3)cc2)C1=O | 45.7 (≈ 129 µM)
3 | Cc1ccc(C(C)C)c(OCCn2ccnc2C)c1.O=C(O)C(=O)O | 46.7
4 | CSc1ncc(CN2CCN(C3CCCC3)C(CCO)C2)cn1 (stereo not drawn) | 42.6 (≈ 127 µM)
5 | Cc1ccc(NC(=O)CN(C)C(=O)c2ccccn2)cc1 | > 42.5
6 | O=C(N/N=C/c1ccccn1)c1cccnc1 | > 33.9
7 | CC1CC(C)CN(C(=O)COC(=O)c2ccc3c(c2)OCO3)C1 (stereo not drawn) | 47 (≈ 147 µM)
8 | CC(C#N)Sc1ccc(S(=O)(=O)N2CCCC2)cn1 (stereo not drawn) | 37.7 (≈ 127 µM)
9 | COc1ccc(C(=O)NCCNc2ccccc2[N+](=O)[O-])cc1 | 36.3 (≈ 115 µM)
10 | CC1CN(C(=S)Nc2ccc(S(N)(=O)=O)cc2)CC(C)O1 (stereo not drawn) | > 49.4
11 | CCOc1ccc(-c2csc(NC(=O)c3ccco3)n2)cc1 | 2.6 (≈ 8.27 µM)
12 | Cc1ccc(C(=O)NC(C)c2ccc(-n3ccnc3)cc2)c(C)c1 (stereo not drawn) | 46 (≈ 144 µM)
13 | O=c1c2ccccc2nc(/C=C/c2cccnc2)n1CCc1ccccc1 | 22.1 (≈ 62.5 µM)
14 | Cn1c2ccccc2n2c(=O)cc(-c3ccccc3)c(C#N)c12 | < 0.2
15 | N#CCCN(Cc1cccnc1)C(=S)NC(=O)c1ccccc1 | > 48.7
16 | Cc1cccc(N2CCCn3c2nc2c3c(=O)[nH]c(=O)n2C)c1 | > 46.7
17 | COc1ccc(S(=O)(=O)N2CC(C)N(C(=O)N3CCOCC3)C2)cc1 (stereo not drawn) | > 55.4
18 | COc1ccc(Cl)cc1C(=O)Nc1cccnc1 | 22.1 (≈ 84.1 µM)
19 | Cc1ccc(/C=C/C(=O)OCC(=O)NC(=O)NCc2ccccc2)cc1 | 3.8 (≈ 10.8 µM)
20 | Cc1ccc(C(OCC(O)CN2CCCCC2)c2ccccc2)cc1 (stereo not drawn) | 40.2 (≈ 118 µM)

Row | Compound | solubility kinetic [µg/mL]
21 | CCN1C(=O)c2ccc(C(=O)Nc3c(C)cc(C)cc3C)cc2C1=O | < 0.4
22 | O=C(NCc1ccccc1F)c1ccc2c(c1)OCCO2 | > 43.1
23 | COc1ccc(C2SCC(=O)N2c2ccc(OC)cc2)cc1 (stereo not drawn) | 45.7 (≈ 145 µM)
24 | O=C(/C=C/c1ccco1)Nc1ccc2c(c1)OCO2 | 36.8 (≈ 143 µM)
25 | CC(=O)C1=C(O)CCCC1=NCc1nc2ccccc2[nH]1 | > 42.5
26 | Cc1cc(SCC(=O)c2ccc(O)c(O)c2)nc2ccccc12 | 3.5 (≈ 10.8 µM)
27 | O=C(Nc1nccs1)C1(c2ccc(Cl)cc2)CC1 | 14.2 (≈ 50.9 µM)
28 | COc1ccc(C2c3ccc(O)cc3Oc3ncn(CC(C)C)c(=N)c32)cc1 (stereo not drawn) | 53.8 (≈ 143 µM)
29 | C=CCn1c(C)cc(-c2csc(NC)n2)c1C | 8.5 (≈ 34.4 µM)
30 | CCNc1c([N+](=O)[O-])c(=O)n(CC)c2ccccc12 | 34.1 (≈ 131 µM)
31 | COc1cccc(N(CC(=O)N2CCCC2)S(C)(=O)=O)c1 | > 46.9
32 | Cl.O=C(NCCCN1CCOCC1)C(=O)c1c[nH]c2ccccc12 | > 52.8
33 | C[N+](C)(C)CCOC(=O)CBr.[Br-] | > 45.8
34 | COc1ccc(CCC(C)NCc2cccc(Br)c2)cc1 (stereo not drawn) | 34.1 (≈ 97.9 µM)
35 | CCc1c(C)c(C#N)c2[nH]c3ccccc3n2c1=S | 6.6 (≈ 24.7 µM)
36 | CNC(=O)COC(=O)/C=C/c1ccco1 | > 31.4
37 | COc1ccc(C)cc1CN1C(=O)c2ccccc2C1=O | 4 (≈ 14.2 µM)
38 | NS(=O)(=O)c1cccc(NC(=O)COC(=O)CSCc2ccccc2)c1 | > 59.2
39 | CSc1cccc(NC(=S)NC(=O)CCc2ccccc2)c1 | 0.7 (≈ 2.12 µM)
40 | O=C(O)[C@H](Cc1ccccc1)Nc1ccc([N+](=O)[O-])cn1 | > 43.1

Row | Compound | solubility kinetic [µg/mL]
41 | COc1ccccc1C(=O)NC(=O)CSc1nnc(C)s1 | > 48.5
42 | COC(=O)c1ccccc1NS(=O)(=O)c1c(C)noc1C | > 46.5
43 | O=C(COc1ccc(Cl)cc1Cl)c1ccc[nH]1 | 34.9 (≈ 129 µM)
44 | O=C(COC(=O)c1ccccc1Br)Nc1ccccc1F | 5.4 (≈ 15.3 µM)
45 | Cc1ccc2c(c1)c1nc3ccccc3nc1n2C | < 0.2
46 | COc1ccccc1OCCCCn1c(C(C)O)nc2ccccc21 (stereo not drawn) | 49.9 (≈ 147 µM)
47 | COc1ccc(OC)c(C(=O)Cn2cnc3ccccc3c2=O)c1 | 0.9 (≈ 2.77 µM)
48 | O=C(NCCNc1ccccc1[N+](=O)[O-])c1ccccc1F | > 45.5
49 | COc1ccc(Cl)cc1NC(=S)N1CCN(S(C)(=O)=O)CC1 | > 54.6
50 | CCOc1ccc(NC(=S)NC(=O)c2cccnc2)c([N+](=O)[O-])c1 | 4.3 (≈ 12.4 µM)
51 | O=C1NC(C(=O)O)=CC(c2ccc([N+](=O)[O-])cc2)N1 (stereo not drawn) | > 39.5
52 | O=C(O)c1ccc(NC(=S)NC(=O)c2cccnc2)cc1 | > 45.2
53 | O=C(NCc1ccc(Cl)cc1)C1CCCO1 (stereo not drawn) | > 36
54 | Cc1c(Cc2ccccc2)c(=O)n2c([nH]c3ccccc32)c1C#N | < 0.2
55 | Nc1ccc(C(=O)O)cc1S(=O)(=O)O | > 32.6
56 | S=C(c1ccc(Br)cc1)N1CCCC1 | > 40.5
57 | CCC1Oc2ccc(C)cc2N(CC(=O)N2CCCC2)C1=O (stereo not drawn) | > 45.4
58 | O=C(O)c1ccccc1C(=O)N1CCN(S(=O)(=O)c2cccc(C(F)(F)F)c2)CC1 | > 66.4

The remaining lines, values ahead:

Row | solubility kinetic [µg/mL] | Compound
59 | > 41.7 | O=C(O)CC1S/C(=N/N=C/c2ccccn2)NC1=O (stereo not drawn)
60 | > 46.7 | Cc1c(/C=N/NC(=O)c2ccc(Br)o2)cnn1C
61 | 34.3 (≈ 109 µM) | CCOC(=O)N1CCN(Cc2ccc(O)c3ncccc23)CC1
62 | 31.2 (≈ 124 µM) | CCOC(=O)N1CCc2c(sc(N)c2C#N)C1
63 | 33.4 (≈ 133 µM) | CN1CCN(CC(O)COc2ccccc2)CC1 (stereo not drawn)
64 | > 56.5 | N#Cc1c(/N=C/c2ccc(-c3ccccc3C(=O)O)o2)sc2c1CCCC2
65 | 35 | Cc1ccc2nc3c(c(Nc4ccccc4)c2c1)CCC3.Cl
66 | 2.3 (≈ 7.29 µM) | COc1ccc(CCNC(=O)Nc2cccc([N+](=O)[O-])c2)cc1
67 | > 46.5 | CCOc1ccc(C2C(C#N)=C(N)Oc3nc[nH]c(=O)c32)cc1 (stereo not drawn)
68 | 16.1 (≈ 34 µM) | Cc1ccc(NC(=O)CNC(=O)c2ccc(C(C)(C)C)cc2)cc1S(=O)(=O)N1CCOCC1
69 | 21.5 (≈ 58.5 µM) | Cc1ccc(S(=O)(=O)NCC(=O)OCCOc2ccccc2F)cc1
70 | > 67.3 | COc1cc(CC(=O)N2CCN(S(=O)(=O)c3ccc(C)cc3)CC2)cc(OC)c1OC
71 | 7.6 (≈ 20 µM) | O=C(Nc1ccc(S(=O)(=O)N2CCCCC2)cc1)c1ccc(Cl)nc1
72 | 0.7 (≈ 2.49 µM) | Cc1ccc(C)c(C(=O)NC(C)CCc2ccccc2)c1 (stereo not drawn)
73 | > 50 | CN1CCN(c2nc(NCc3ccco3)nc(N)c2[N+](=O)[O-])CC1
74 | > 32.9 | O=C(O)/C=C/C(=O)NCCc1ccccc1
75 | > 50.3 | CC1CCC2(CC1)NC(=O)N(CC(=O)NC1CCCCC1C)C2=O (stereo not drawn)
76 | 10.3 (≈ 38.5 µM) | CCOC(=O)c1c[nH]c2ccc3ccccc3c2c1=O
77 | > 47.3 | COc1ccc(-c2nonc2NC(=O)c2ccco2)cc1OC
78 | > 38.7 | CCOc1cccc(C(=O)N/N=C/c2ccoc2)c1

Row | solubility kinetic [µg/mL] | Compound
79 | 42.5 (≈ 120 µM) | CC(C)S(=O)(=O)C/C(N)=N/OS(=O)(=O)c1ccc(Cl)cc1
80 | 31.9 (≈ 132 µM) | COc1cccc(Nc2ncc(C#N)c(N)n2)c1
81 | 1.5 (≈ 4.65 µM) | CCC(C(=O)OC)n1c(-c2ccccc2)nc2ccccc2c1=O (stereo not drawn)
82 | < 0.7 | COc1ccc(/C=C2\SC(=S)N(CC3CCCO3)C2=O)cc1 (stereo not drawn)
83 | 3.4 (≈ 10.8 µM) | Cc1cccc(-c2noc(CCC(=O)NC3CCCCC3)n2)c1
84 | > 99.5 | NC(=O)c1ccc[n+]([C@H]2O[C@@H](COP(=O)([O-])OP(=O)(O)OC[C@H]3O[C@@H](n4cnc5c(N)ncnc54)[C@H](O)[C@@H]3O)[C@H](O)[C@@H]2O)c1
85 | > 50.9 | COc1cccc(NC(=O)C(c2ccccc2)N2CCNC(=O)C2)c1 (stereo not drawn)
86 | > 44.7 | O=C(NCCCn1ccnc1)c1ccc(Cl)c(Cl)c1
87 | > 45.8 | O=S(=O)(NCc1cn2ccccc2n1)c1ccccc1F
88 | 45.5 (≈ 136 µM) | Cc1ccccc1-n1c(C)c(C#N)c(=O)c(-[n+]2ccccc2)c1[S-]
89 | 59.1 (≈ 146 µM) | COc1ccc(C(CNC(=O)Cc2c(F)cccc2Cl)N2CCCCC2)cc1 (stereo not drawn)
90 | > 50.4 | O=C(O)c1cn(-c2ccc(F)cc2)c2cc(Cl)c(F)cc2c1=O
91 | > 32.8 | Nc1c(Cl)ncnc1NCC(O)CO (stereo not drawn)
92 | > 59.1 | NC(=O)C1CCN(C(=O)c2cc(-c3ccc(Cl)cc3)nc3ccccc23)CC1
93 | > 60.8 | CC(=O)NS(=O)(=O)c1ccc(NC(=O)c2ccc3c(c2)NC(=O)CS3)cc1
94 | 4.2 (≈ 13.9 µM) | COC(=O)c1scc(C)c1N1C(=O)c2ccccc2C1=O
95 | > 42.9 | CC(=O)c1c(C)[nH]c(=S)c(C#N)c1-c1ccc(F)cc1
96 | 7.3 (≈ 21.3 µM) | O=[N+]([O-])c1ccc(N2CCN(Cc3cccc([N+](=O)[O-])c3)CC2)cc1
97 | 48.2 (≈ 149 µM) | CCCn1c(=O)c(Br)cn(-c2ccccc2C)c1=O
98 | > 30.9 | NC(=S)Nc1ccc(F)c(F)c1F

Row | solubility kinetic [µg/mL] | Compound
99 | > 32.1 | CC(=O)c1cccc(Oc2ncccn2)c1
100 | 41.6 (≈ 148 µM) | CCC(C)NC(=O)c1ccc(C(=O)c2ccccc2)cc1 (stereo not drawn)
101 | 2.6 (≈ 9.41 µM) | COC(=O)c1ccccc1NC(=O)NC1CCCCC1
102 | 20.7 (≈ 116 µM) | CCc1cc(SC#N)ccc1N
103 | 38 (≈ 148 µM) | O=c1ncn(-c2cccc(Cl)c2)c2ccccc12
104 | > 40.8 | N#CC1=C(N)Oc2nc[nH]c(=O)c2C1c1cccs1 (stereo not drawn)
105 | 18.1 (≈ 54.6 µM) | CCc1ccc(C(=O)COC(=O)CNC(=O)C2CCCCC2)cc1
106 | < 0.2 | Brc1ccc(-c2nc(-c3ccncc3)no2)cc1
107 | 30.6 (≈ 102 µM) | Cc1ccccc1NCN1C(=O)C2CCC(C)(C1=O)C2(C)C (stereo not drawn)
108 | > 43.1 | CSc1ncc(C(=O)Nc2cc(C)ccc2C)c(C)n1
109 | < 0.2 | Cc1ccc(NC(=O)C(=O)NCCc2c[nH]c3ccccc23)cc1C
110 | 10 (≈ 34.4 µM) | Cc1ccc(CN2CCN(c3ccccc3Cl)CC2)o1
111 | 47.3 (≈ 144 µM) | Cc1ccc(NC(=O)COC(=O)C2C3CC4OC(=O)C2C4C3)cc1 (stereo not drawn)
112 | > 52.7 | Cc1cccc(C)c1NC(=O)N1C2CCC1CC(O)(c1cccnc1)C2 (stereo not drawn)
113 | 7.5 (≈ 20.9 µM) | O=C(OCC(=O)c1c[nH]c2ccccc12)c1cncc(Br)c1
114 | > 39.8 | O=C(CCC(=O)N1CCOCC1)c1ccc(F)cc1
115 | > 46.7 | CSc1ccc(S(=O)(=O)NCCCn2ccnc2)cc1
116 | > 46.3 | CC1CCN(CC(=O)N2c3ccccc3CC2C)CC1.Cl (stereo not drawn)
117 | 43.6 (≈ 140 µM) | COc1ccccc1C(=O)Nc1ccc2c(c1)n(C)c(=O)n2C
118 | > 49.1 | O=C(CN1N=C(c2ccccc2)CCC1=O)NCc1cccs1
